Measured values: patent US9980927B2, “Use of tapentadol for inhibiting and/or treating depression and anxiety” (Gruenenthal GmbH, priority 2011, dated 2018)

System: patients with inadequately managed, severe chronic low back pain with or without a neuropathic pain component
Experiment: Hospital Anxiety and Depression Scale (HADS) depression score; open-label phase IIIb trial, tapentadol prolonged release 50-250 mg bid for up to 12 weeks
Format: in vivo, human patients
Conditions: for HADS depression score, course: Baseline to Week 12
Procedure: As used herein, the “depression score” is a value determining the degree of the depression. The scale of depression scores covers the range from 0 to 21, wherein the degree of the depression is high in case of high values and low in case of low values. In a group of tested subjects, typically the mean or mediate values of depression scores are determined. The mean value is the sum of all depression scores divided by the number of subjects. The mediate value is the middle depression score in the set of determined scores. Preferably, the “depression score” is defined as in the experimental section.
A subgroup suffering from neuropathic pain due to lumbar radiculopathy was also investigated.
This was a multicenter, multinational, open-label, effectiveness phase IIIb trial to evaluate effectiveness and safety of tapentadol prolonged release treatment in patients with inadequately managed, severe chronic low back pain with or without a neuropathic pain component. Patients taking WHO Step II analgesics discontinued those analgesics before starting study medication; patients taking Step I analgesics and/or centrally acting co-analgesics continued on the same dose. […] All patients received tapentadol prolonged release (50-250 mg bid) for up to 12 weeks (5-week titration period and a 7-week maintenance period). Tapentadol immediate release (IR) 50 mg (twice a day, hours apart) was permitted (combined total daily dose of tapentadol prolonged release and tapentadol IR, 500 mg/day). The primary efficacy endpoint was the change from Baseline to Week 6 (when tapentadol prolonged release doses were stable) in average pain intensity on the 11-point NRS-3 using the last observation carried forward (LOCF) for imputing missing scores. The painDETECT questionnaire was used to evaluate the likelihood of a neuropathic pain component of low back pain; patients were classified as painDETECT “negative,” “unclear,” or “positive.” The population of patients classified as painDETECT negative was limited to approximately 30% of the total population.
In the painDETECT positive trial population the “diagnosis of lumbar radiculopathy” was evaluated which was defined per study protocol according following criteria: • typical dermatomal pain (radiating beyond the knee towards the foot, pain evoked by stretching within distribution of the ischiadic/femoral nerve) • signs of root dysfunction: • such as sensory impairment, motor symptoms from compression of lumbar nerve root (L4, L5, S1). • and/or absent or diminished quadriceps femoris or triceps surae reflexes. • and/or quantitative sensory testing (QST) deficit and pain distribution present in the same dermatomal area.
All subjects completed Short Form-36 (SF-36) and EuroQol-5 Dimension (EQ-5D) questionnaires and the Hospital Anxiety and Depression Scale (HADS). The Patient Global Impression of Change (PGIC) and Clinical global impression of change (CGIC) were also used as secondary endpoints. For both tests, patients completed the statement, “since I began trial treatment, I would rate my overall condition as,” using 7 possible responses (“very much worse” to “very much improved”). Adverse events were recorded throughout the trial.
In the following • (i) N is the number of subjects of the specified diagnosis group, • (ii) n is the number of subjects with data available, • (iii) “Mean” is the mean score of the subjects, i.e. the sum of all scores is divided by the number of subjects, • (iv) SD is the standard deviation, • (v) “Median” is the median score of the subjects, i.e. the middle score in the set of scores, • (vi) “Range” is the range of scores of the subjects, i.e. the range defined by the lowest and the highest score of the set of scores. First, the depression scores are presented. The total number of subjects in the clinical study: N=175

[1] = Visit 1, defined neuropathic pain N=85
[2] = Visit 1, positive diagnosis of lumbar radiculopathy-neuropathic pain subset N=44
[3] = Visit 1, presumed neuropathic pain component N=41
[4] = Visit 1, presumed or defined neuropathic pain component N=126
[5] = Visit 1, subjects with nociceptive pain N=49
[6] = Visit 5, defined neuropathic pain N=85
[7] = Visit 5, positive diagnosis of lumbar radiculopathy-neuropathic pain subset N=44
[8] = Visit 5, presumed neuropathic pain component N=41
[9] = Visit 5, presumed or defined neuropathic pain component N=126
[10] = Visit 5, subjects with nociceptive pain N=49
[11] = Visit 6, defined neuropathic pain N=85
[12] = Visit 6, positive diagnosis of lumbar radiculopathy-neuropathic pain subset N=44
[13] = Visit 6, presumed neuropathic pain component N=41
[14] = Visit 6, presumed or defined neuropathic
[15] = Visit 6, presumed or defined neuropathic pain component N=126
[16] = Visit 6, subjects with nociceptive pain N=49
[17] = Visit 7, defined neuropathic pain N=85
[18] = Visit 7, positive diagnosis of lumbar radiculopathy-neuropathic pain subset N=44
[19] = Visit 7, presumed neuropathic pain component N=41
[20] = Visit 7, presumed or defined neuropathic pain component N=126
[21] = Visit 7, subjects with nociceptive pain N=49
[22] = Visit 8, defined neuropathic pain N=85
[23] = Visit 8, positive diagnosis of lumbar radiculopathy-neuropathic pain subset N=44
[24] = Visit 8, presumed neuropathic pain component N=41
[25] = Visit 8, presumed or defined neuropathic
[26] = Visit 8, presumed or defined neuropathic pain component N=126
[27] = Visit 8, subjects with nociceptive pain N=49
[28] = Visit 9, defined neuropathic pain N=85
[29] = Visit 9, positive diagnosis of lumbar radiculopathy-neuropathic pain subset N=44
[30] = Visit 9, presumed neuropathic pain component N=41
[31] = Visit 9, presumed or defined neuropathic pain component N=126
[32] = Visit 9, subjects with nociceptive pain N=49
[33] = Visit 10, defined neuropathic pain N=85
[34] = Visit 10, positive diagnosis of lumbar radiculopathy-neuropathic pain subset N=44
[35] = Visit 10, presumed neuropathic pain component N=41
[36] = Visit 10, presumed or defined neuropathic pain component N=126
[37] = Visit 10, subjects with nociceptive pain N=49
[38] = Visit 11, defined neuropathic pain N=85
[39] = Visit 11, positive diagnosis of lumbar radiculopathy-neuropathic pain subset N=44
[40] = Visit 11, presumed neuropathic pain component N=41
[41] = Visit 11, presumed or defined neuropathic pain component N=126
[42] = Visit 11, subjects with nociceptive pain N=49
[43] = Visit 12, defined neuropathic pain N=85
[44] = Visit 12, positive diagnosis of lumbar radiculopathy-neuropathic pain subset N=44
[45] = Visit 12, presumed neuropathic pain component N=41
[46] = Visit 12, presumed or defined neuropathic
[47] = Visit 12, presumed or defined neuropathic pain component N=126
[48] = Visit 12, subjects with nociceptive pain N=49

## CC[C@@H](c1cccc(O)c1)[C@@H](C)CN(C)C [tapentadol, (−)-(1R,2R)-3-(3-dimethylamino-1-ethyl-2-methyl-propyl)-phenol]
painDETECT negative
  HADS depression score, course: not significantly
painDETECT unclear/positive, P<0.0001 at Visit 12
  HADS depression score, course: improved steadily
Positive diagnosis of lumbar radiculopathy-neuropathic pain subset, 0.0023 at Visit 12
  HADS depression score, course: improved steadily
[1]
  Depression score Mean (SD): 8.3 (4.51)
  Depression score Median: 8.0
[2]
  Depression score Mean (SD): 7.5 (3.69)
  Depression score Median: 7.5
[3]
  Depression score Mean (SD): 8.8 (4.59)
  Depression score Median: 8.5
[4]
  Depression score Mean (SD): 8.5 (4.52)
  Depression score Median: 8.0
[5]
  Depression score Mean (SD): 6.1 (3.90)
  Depression score Median: 5.0
Visit 1, total subjects N=175
  Depression score Mean (SD): 7.8 (4.47)
  Depression score Median: 7.0
[6]
  Depression score Mean (SD): 7.3 (4.29)
  Depression score Median: 7.0
[7]
  Depression score Mean (SD): 6.7 (3.77)
  Depression score Median: 6.0
[8]
  Depression score Mean (SD): 7.5 (4.59)
  Depression score Median: 7.0
[9]
  Depression score Mean (SD): 7.4 (4.37)
  Depression score Median: 7.0
[10]
  Depression score Mean (SD): 5.6 (3.68)
  Depression score Median: 5.0
Visit 5, total subjects N=175
  Depression score Mean (SD): 6.9 (4.26)
  Depression score Median: 6.0
Visit 6
  Depression score change from baseline Mean (SD): −0.4 (3.55)
  Depression score change from baseline Median: −0.0
Visit 6, defined neuropathic
  Depression score change from baseline Mean (SD): −1.7 (3.43)
  Depression score change from baseline Median: −2.0
[11]
  Depression score Mean (SD): 6.8 (4.41)
  Depression score Median: 6.0
Visit 6, lumbar radiculopathy
  Depression score change from baseline Mean (SD): −1.7 (3.23)
  Depression score change from baseline Median: −1.0
Visit 6, nociceptive
  Depression score change from baseline Mean (SD): −1.0 (3.15)
  Depression score change from baseline Median: −1.0
[12]
  Depression score Mean (SD): 6.3 (3.67)
  Depression score Median: 6.0
[13]
  Depression score Mean (SD): 7.5 (4.60)
  Depression score Median: 7.5
[14]
  Depression score change from baseline Mean (SD): −1.3 (3.50)
  Depression score change from baseline Median: −1.0
[15]
  Depression score Mean (SD): 7.1 (4.46)
  Depression score Median: 7.0
[16]
  Depression score Mean (SD): 5.3 (4.03)
  Depression score Median: 4.0
Visit 6, total
  Depression score change from baseline Mean (SD): −1.2 (3.40)
  Depression score change from baseline Median: −1.0
Visit 6, total subjects N=175
  Depression score Mean (SD): 6.6 (4.41)
  Depression score Median: 6.0
[17]
  Depression score Mean (SD): 6.2 (4.56)
  Depression score Median: 6.0
[18]
  Depression score Mean (SD): 5.4 (3.85)
  Depression score Median: 5.0
[19]
  Depression score Mean (SD): 7.0 (4.71)
  Depression score Median: 6.5
[20]
  Depression score Mean (SD): 6.5 (4.61)
  Depression score Median: 6.0
[21]
  Depression score Mean (SD): 5.0 (3.63)
  Depression score Median: 4.0
Visit 7, total subjects N=175
  Depression score Mean (SD): 6.1 (4.40)
  Depression score Median: 6.0
Visit 8
  Depression score change from baseline Mean (SD): −1.0 (3.13)
  Depression score change from baseline Median: −1.0
Visit 8, defined neuropathic
  Depression score change from baseline Mean (SD): −2.3 (3.33)
  Depression score change from baseline Median: −1.5
[22]
  Depression score Mean (SD): 6.4 (4.28)
  Depression score Median: 6.0
Visit 8, lumbar radiculopathy
  Depression score change from baseline Mean (SD): −2.1 (3.54)
  Depression score change from baseline Median: −1.0
Visit 8, nociceptive
  Depression score change from baseline Mean (SD): −0.8 (2.31)
  Depression score change from baseline Median: −1.0
[23]
  Depression score Mean (SD): 5.8 (3.71)
  Depression score Median: 6.0
[24]
  Depression score Mean (SD): 6.4 (4.24)
  Depression score Median: 6.0
[25]
  Depression score change from baseline Mean (SD): −1.9 (3.30)
  Depression score change from baseline Median: −1.0
[26]
  Depression score Mean (SD): 6.4 (4.24)
  Depression score Median: 6.0
[27]
  Depression score Mean (SD): 5.5 (3.90)
  Depression score Median: 4.5
Visit 8, total
  Depression score change from baseline Mean (SD): −1.6 (3.09)
  Depression score change from baseline Median: −1.0
Visit 8, total subjects N=175
  Depression score Mean (SD): 6.2 (4.16)
  Depression score Median: 6.0
[28]
  Depression score Mean (SD): 6.5 (5.06)
  Depression score Median: 6.0
[29]
  Depression score Mean (SD): 6.2 (4.63)
  Depression score Median: 7.5
[30]
  Depression score Mean (SD): 6.4 (4.32)
  Depression score Median: 6.0
[31]
  Depression score Mean (SD): 6.5 (4.81)
  Depression score Median: 6.0
[32]
  Depression score Mean (SD): 5.4 (3.49)
  Depression score Median: 5.0
Visit 9, total subjects N=175
  Depression score Mean (SD): 6.1 (4.48)
  Depression score Median: 6.0
[33]
  Depression score Mean (SD): 6.5 (5.04)
  Depression score Median: 6.0
[34]
  Depression score Mean (SD): 6.2 (4.50)
  Depression score Median: 7.0
[35]
  Depression score Mean (SD): 6.4 (5.34)
  Depression score Median: 5.0
[36]
  Depression score Mean (SD): 6.5 (5.09)
  Depression score Median: 6.0
[37]
  Depression score Mean (SD): 5.5 (3.34)
  Depression score Median: 5.5
Visit 10, total subjects N=175
  Depression score Mean (SD): 6.2 (4.66)
  Depression score Median: 6.0
[38]
  Depression score Mean (SD): 5.9 (4.70)
  Depression score Median: 5.5
[39]
  Depression score Mean (SD): 6.0 (4.69)
  Depression score Median: 6.5
[40]
  Depression score Mean (SD): 6.4 (5.11)
  Depression score Median: 5.0
[41]
  Depression score Mean (SD): 6.0 (4.80)
  Depression score Median: 5.0
[42]
  Depression score Mean (SD): 5.6 (4.04)
  Depression score Median: 5.0
Visit 11, total subjects N=175
  Depression score Mean (SD): 5.9 (4.59)
  Depression score Median: 5.0
Visit 12
  Depression score change from baseline Mean (SD): −1.5 (3.30)
  Depression score change from baseline Median: −2.0
Visit 12, defined neuropathic
  Depression score change from baseline Mean (SD): −2.2 (3.31)
  Depression score change from baseline Median: −2.0
[43]
  Depression score Mean (SD): 5.8 (4.76)
  Depression score Median: 5.0
Visit 12, lumbar radiculopathy
  Depression score change from baseline Mean (SD): −2.1 (3.30)
  Depression score change from baseline Median: −1.0
Visit 12, nociceptive
  Depression score change from baseline Mean (SD): −0.5 (2.86)
  Depression score change from baseline Median: 0.0
[44]
  Depression score Mean (SD): 5.3 (4.09)
  Depression score Median: 5.0
[45]
  Depression score Mean (SD): 6.2 (4.66)
  Depression score Median: 5.0
[46]
  Depression score change from baseline Mean (SD): −2.0 (3.30)
  Depression score change from baseline Median: −2.0
[47]
  Depression score Mean (SD): 5.9 (4.70)
  Depression score Median: 5.0
[48]
  Depression score Mean (SD): 4.9 (3.13)
  Depression score Median: 4.0
Visit 12, total
  Depression score change from baseline Mean (SD): −1.6 (3.24)
  Depression score change from baseline Median: −2.0
Visit 12, total subjects N=175
  Depression score Mean (SD): 5.7 (4.35)
  Depression score Median: 5.0
Conclusion from the clinical data
  efficacy against depression: significant efficacy
Patient sub-population with low back pain with a neuropathic component
  depression (measured with HADS): significant improvement
